Square brackets hold non-standard residues; d marks the D form. Ends that are not written are not given here. pT = C[C@@H](OP(=O)(O)O)[C@H](N)C(=O)O
Columns and labels:
Tau-P301L dementia mice [1] = experiment: Water maze test; type: in vivo; details: 5th day, platform removed; ranking after K280-ac
Procedure: (§1) JNPL3 mice expressing Tau-P301L mutant gene were purchased from Taconic, and back-crossed with C57bl/6 mice for five generations in the experimental animal room of the Asan Institute for Life Sciences. Then, the mice were raised under a specific pathogen free (SPE) condition. For active immunization, the mice were administered, for six months starting from three months after birth at intervals of two weeks, two weeks, four weeks, four weeks, five weeks, four weeks, and one week in this order, the four modified tau protein fragments prepared in Preparation Example 1 together with keyhole limpet hemocyanin (KLH) as a carrier and an aluminum adjuvant. At this time, administration was carried out through intraperitoneal injection (IP injection). The dementia mice which were actively immunized by administration of the K280-ac fragment were designated as Tau-P301L-K280-ac.
An underwater maze test was performed to evaluate a learning and memory ability of the mice. […] Specifically, the underwater maze test took a total of 5 days. The mice were trained for 4 days in a state where a platform and a visual cue for the platform location are placed.
The learning was conducted by filling a swimming pool (1.4 m in diameter, 45 cm in depth) having a platform with water (29±0.5° C.) to a depth of about 26.5 cm, and then 1.5 L of whole milk powder was added to make water cloudy so that the mice can remember the platform with the cue only. Then, the mice were adapted to freely swim for 60 seconds and allowed to rest on the platform for 1 minute. The experiment was performed over a total of 12 times with 4 sets at three different starting positions. At the end of each test, 30 seconds of break time was given. At the end of one set, 30 to 45 minutes of break time was given.
After 4 days of learning, the test was performed on the 5th day. In the experiment for evaluation, the platform was not placed, and the number of staying in the area where the platform has been placed was measured in order to identify whether the mice visit well the platform location using the cue only. The test time was set for the mice to arrive at the location where the platform had been placed within one minute. If the mice fail to arrive at the platform location within one minute, the mice were removed out of the swimming pool.

Tau-P301L dementia mice [2] = experiment: ELISA using plasma: antibody production against modified tau protein fragments; type: in vivo; details: ELISA using plasma after final administration; fragment with KLH and aluminum adjuvant, IP
Procedure: as §1
In order to identify whether antibodies against the four modified tau protein fragments prepared in Preparation Example 1 were produced, the respective modified tau protein fragments or the full-length tau protein was finally administered, and then ELISA was performed using plasma.

Substance	number of arrivals, ranking among fragments (Tau-P301L dementia mice [1])	antibodies against the fragment produced (Tau-P301L dementia mice [2])
Glu391: protein fragment having the 381st to 391st amino acid sequence section of the tau protein in which the C-terminus of the 391st amino acid is truncated (NAKAKTDHGAE)	next highest increased number of arrivals	well produced
VQIVYK-ac: protein fragment having the 303rd to 316th amino acid sequence section of the tau protein in which the 306th to 311th amino acids are acetylated (GGSVQIVYKPVDLS; also: residues 306-311 (VQIVYK) acetylated; listed as Homo sapiens)	next highest increased number of arrivals	not well produced
pT231: protein fragment having the 226th to 236th amino acid sequence section of the tau protein in which the 231st amino acid is phosphorylated (VAVVR[pT]PPKSP)	lowest number of times to arrive at the platform	well produced

From patent publication US11001615B2, “Mutated tau protein fragment and use thereof” (ADEL INC., priority 2016, dated 2021)
